Target: T1, human mAChR M1 (Homo sapiens, UniProt P11229)
T1 sequence (P11229 1-460): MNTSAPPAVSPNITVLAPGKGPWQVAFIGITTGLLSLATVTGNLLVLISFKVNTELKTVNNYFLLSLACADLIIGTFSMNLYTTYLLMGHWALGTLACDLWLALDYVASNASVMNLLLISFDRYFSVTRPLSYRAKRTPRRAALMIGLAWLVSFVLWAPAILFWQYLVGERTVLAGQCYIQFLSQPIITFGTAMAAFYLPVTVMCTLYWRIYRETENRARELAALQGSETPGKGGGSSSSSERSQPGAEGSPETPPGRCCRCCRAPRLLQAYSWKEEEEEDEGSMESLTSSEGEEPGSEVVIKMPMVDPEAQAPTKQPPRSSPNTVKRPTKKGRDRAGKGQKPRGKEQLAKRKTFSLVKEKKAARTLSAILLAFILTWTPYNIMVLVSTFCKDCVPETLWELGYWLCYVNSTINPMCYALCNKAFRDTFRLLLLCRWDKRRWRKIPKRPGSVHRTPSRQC
Assay: mAChR M1 cell-based functional assay: calcium mobilization, positive allosteric modulator mode (increase in EC20 acetylcholine response)
Settings: Table 2, human M1; for EC50: read-out: Human M1 EC50; for Emax: read-out: Human M1 Emax (%)
Method in brief: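 Calcium-flux assay in CHO-K1 cells stably expressing human M1, loaded with Fluo-4 AM (50 min, 37 °C) and read at 1 Hz. Compound (11-point, 1:3 series) was added at 4 s, EC20 acetylcholine at 144 s and EC80 at 230 s. PAM activity is the concentration-dependent rise in the EC20 response, fitted with a four-parameter logistic.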

| Compound | EC50 | Emax | Human M1 Emax (%) |
| --- | --- | --- | --- |
| Cn1ccc(-c2ccc(Cc3cc(C(=O)NC4CC(F)C4)nc4ccn(C)c34)cn2)n1 (stereo not drawn) [Compound 510, N-(3-fluorocyclobutyl)-1-methyl-7-[[6-(1-methylpyrazol-3-yl)-3-pyridyl]methyl]pyrrolo[3,2-b]pyridine-5-carboxamide;] | 4280 nM | 76.8% |  |
| Cn1ccc(-c2ccc(Cc3cc(C(=O)NC4CC(F)(F)C4)nc4ccn(C)c34)cn2)n1 [Compound 511, N-(3,3-difluorocyclobutyl)-1-methyl-7-[[6-(1-methylpyrazol-3-yl)-3-pyridyl]methyl]pyrrolo[3,2-b]pyridine-5-carboxamide;] | 1770 nM | 66.1% |  |
| Cn1ccc(-c2ccc(Cc3cc(C(=O)N[C@H]4CCCC[C@@H]4O)nc4ccn(C)c34)cn2)n1 [Compound 512, N-[(1S,2S)-2-hydroxycyclohexyl]-1-methyl-7-[[6-(1-methylpyrazol-3-yl)-3-pyridyl]methyl]pyrrolo[3,2-b]pyridine-5-carboxamide; and] | 91.3 nM | 70.8% |  |
| Cn1ccc(-c2ccc(Cc3cc(C(=O)N[C@H]4CC[C@@H]4O)nc4ccn(C)c34)cn2)n1 [Compound 513, N-[(1S,2S)-2-hydroxycyclobutyl]-1-methyl-7-[[6-(1-methylpyrazol-3-yl)-3-pyridyl]methyl]pyrrolo[3,2-b]pyridine-5-carboxamide] | 712 nM | 77.8% |  |
| N-[(1S,2S)-2-hydroxycyclohexyl]-7-(4-[(4-2-ylphenyl)methyl]thieno[3,2-b]pyridine-5-carboxamide [Compound 295] |  |  | 72.42% |

— US11111251B2, “Positive allosteric modulators of the muscarinic acetylcholine receptor M1” (Vanderbilt University, priority 2016, dated 2021)
